Laboratory results taken from PubChem BioAssay AID2060892 (Molecular Pharmacology Branch, DTP, NCI, 2025).
Values joined by “and” are separate entries in the source; they are usually repeats but may differ in a detail not shown here. Equal values may be shown once.

Tested on: HOP-62 complex spheroids with HUVEC/MSC, viability
Assay: Anticancer human tumor HOP-62 cell line growth inhibition [RAS];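 further: spheroids exposed to agents for seven days before readout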;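 on viability, T/C: 100% = DMSO vehicle control viability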
Settings: for viability, T/C: stronger effect = lower value; active means viability on the fitted dose curve at most 10% of control; inactive means the rest
How it was run: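 Multi-cell-type spheroids: tumor cells plus HUVEC endothelial cells and mesenchymal stem cells. RAS-pathway inhibitors were combined with targeted agents, each dosed in half-log steps down from clinical Cmax, or from 10 microM when Cmax was unknown.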

CC1(O)CCCC1n1c(=O)c(C(F)F)cc2cnc(NC3CCN(S(C)(=O)=O)CC3)nc21 (stereo not drawn) + CCn1c(-c2cccnc2C(C)OC)c2c3cc(ccc31)N1CCOC(CC(NC(=O)C(C(C)C)N(C)C(=O)C3(F)CCN(C(=O)C#CC(C)(C)N(C)C)CC3)C(=O)N3CCCC(N3)C(=O)OCC(C)(C)C2)C1
3400 nM: IC50 (curve of first compound, second compound 0.00949 µM)
active: viability, T/C (second compound 0.000949 µM, first compound 10 µM) 2.45% | viability, T/C (second compound 0.003 µM, first compound 10 µM) 2.8% | viability, T/C (second compound 0.00949 µM, first compound 10 µM) 2.82% | viability, T/C (second compound 0.03 µM, first compound 10 µM) 2.88% | viability, T/C (second compound 0.0949 µM, first compound 10 µM) 2.21% | viability, T/C (second compound 0.3 µM, first compound 10 µM) 2.92%
1170 nM: IC50 (curve of first compound, second compound 0.03 µM)
4470 nM: IC50 (curve of first compound, second compound 0.003 µM)
4840 nM: IC50 (curve of first compound, second compound 0.000949 µM)
inactive: viability, T/C (second compound 0.000949 µM, first compound 0.0316 µM) 107% | viability, T/C (second compound 0.000949 µM, first compound 0.1 µM) 87.9% | viability, T/C (second compound 0.000949 µM, first compound 0.316 µM) 58% | viability, T/C (second compound 0.000949 µM, first compound 1 µM) 86.6% | viability, T/C (second compound 0.000949 µM, first compound 3.16 µM) 77.8% | viability, T/C (second compound 0.003 µM, first compound 0.0316 µM) 94.1% | viability, T/C (second compound 0.003 µM, first compound 0.1 µM) 65.2% | viability, T/C (second compound 0.003 µM, first compound 0.316 µM) 54.5% | viability, T/C (second compound 0.003 µM, first compound 1 µM) 67.6% | viability, T/C (second compound 0.003 µM, first compound 3.16 µM) 70.9% | viability, T/C (second compound 0.00949 µM, first compound 0.0316 µM) 83% | viability, T/C (second compound 0.00949 µM, first compound 0.1 µM) 59.1% | viability, T/C (second compound 0.00949 µM, first compound 0.316 µM) 61% | viability, T/C (second compound 0.00949 µM, first compound 1 µM) 60% | viability, T/C (second compound 0.00949 µM, first compound 3.16 µM) 55.9% | viability, T/C (second compound 0.03 µM, first compound 0.0316 µM) 89.5% | viability, T/C (second compound 0.03 µM, first compound 0.1 µM) 80.2% | viability, T/C (second compound 0.03 µM, first compound 0.316 µM) 57.5% | viability, T/C (second compound 0.03 µM, first compound 1 µM) 60.5% | viability, T/C (second compound 0.03 µM, first compound 3.16 µM) 33% | viability, T/C (second compound 0.0949 µM, first compound 0.0316 µM) 80.6% | viability, T/C (second compound 0.0949 µM, first compound 0.1 µM) 67.1% | viability, T/C (second compound 0.0949 µM, first compound 0.316 µM) 56.8% | viability, T/C (second compound 0.0949 µM, first compound 1 µM) 59.7% | viability, T/C (second compound 0.0949 µM, first compound 3.16 µM) 43.4% | viability, T/C (second compound 0.3 µM, first compound 0.0316 µM) 71.7% | viability, T/C (second compound 0.3 µM, first compound 0.1 µM) 63.1% | viability, T/C (second compound 0.3 µM, first compound 0.316 µM) 56.5% | viability, T/C (second compound 0.3 µM, first compound 1 µM) 51.9% | viability, T/C (second compound 0.3 µM, first compound 3.16 µM) 21.2%
1630 nM: IC50 (curve of first compound, second compound 0.0949 µM)
777 nM: IC50 (curve of first compound, second compound 0.3 µM)

CCc1c2c(nc3ccc(O)cc13)-c1cc3c(c(=O)n1C2)COC(=O)[C@]3(O)CC + C=CC(=O)N1CCN(c2nc(OCC3CCCN3C)nc3c(F)c(-c4nc(N)cc(C)c4C(F)(F)F)c(Cl)cc23)C(C)C1
active: viability, T/C (second compound 0.00316 µM, first compound 0.00949 µM) 6.88% | viability, T/C (second compound 0.00316 µM, first compound 0.03 µM) 3.96% | viability, T/C (second compound 0.00316 µM, first compound 0.0949 µM) 2.91% | viability, T/C (second compound 0.00316 µM, first compound 0.3 µM) 4.33% | viability, T/C (second compound 0.01 µM, first compound 0.00949 µM) 6.73% | viability, T/C (second compound 0.01 µM, first compound 0.03 µM) 4.31% | viability, T/C (second compound 0.01 µM, first compound 0.0949 µM) 3.65% | viability, T/C (second compound 0.01 µM, first compound 0.3 µM) 2.46% | viability, T/C (second compound 0.0316 µM, first compound 0.003 µM) 9.52% | viability, T/C (second compound 0.0316 µM, first compound 0.00949 µM) 5.4% | viability, T/C (second compound 0.0316 µM, first compound 0.03 µM) 3.77% | viability, T/C (second compound 0.0316 µM, first compound 0.0949 µM) 2.66% | viability, T/C (second compound 0.0316 µM, first compound 0.3 µM) 2.57% | viability, T/C (second compound 0.1 µM, first compound 0.00949 µM) 6.42% | viability, T/C (second compound 0.1 µM, first compound 0.03 µM) 3.2% | viability, T/C (second compound 0.1 µM, first compound 0.0949 µM) 3.67% | viability, T/C (second compound 0.1 µM, first compound 0.3 µM) 2.48% | viability, T/C (second compound 0.316 µM, first compound 0.00949 µM) 8.01% | viability, T/C (second compound 0.316 µM, first compound 0.03 µM) 5.51% | viability, T/C (second compound 0.316 µM, first compound 0.0949 µM) 4.05% | viability, T/C (second compound 0.316 µM, first compound 0.3 µM) 2.72% | viability, T/C (second compound 1 µM, first compound 0.00949 µM) 6.37% | viability, T/C (second compound 1 µM, first compound 0.03 µM) 4.48% | viability, T/C (second compound 1 µM, first compound 0.0949 µM) 2.92% | viability, T/C (second compound 1 µM, first compound 0.3 µM) 2.71%
< 0.949 nM: IC50 (curve of first compound, second compound 0.00316 µM) | IC50 (curve of first compound, second compound 0.01 µM) | IC50 (curve of first compound, second compound 0.0316 µM) | IC50 (curve of first compound, second compound 0.1 µM) | IC50 (curve of first compound, second compound 0.316 µM) | IC50 (curve of first compound, second compound 1 µM)
inactive: viability, T/C (second compound 0.00316 µM, first compound 0.000949 µM) 46.5% | viability, T/C (second compound 0.00316 µM, first compound 0.003 µM) 11.8% | viability, T/C (second compound 0.01 µM, first compound 0.000949 µM) 47.3% | viability, T/C (second compound 0.01 µM, first compound 0.003 µM) 11.6% | viability, T/C (second compound 0.0316 µM, first compound 0.000949 µM) 42.5% | viability, T/C (second compound 0.1 µM, first compound 0.000949 µM) 47.7% | viability, T/C (second compound 0.1 µM, first compound 0.003 µM) 10.1% | viability, T/C (second compound 0.316 µM, first compound 0.000949 µM) 40.5% | viability, T/C (second compound 0.316 µM, first compound 0.003 µM) 10.3% | viability, T/C (second compound 1 µM, first compound 0.000949 µM) 43.2% | viability, T/C (second compound 1 µM, first compound 0.003 µM) 12.4%

Cc1nc(N2CCC3(CC2)COC(C)C3N)c(CO)nc1Sc1ccnc(N)c1Cl (stereo not drawn)
> 10000 nM: IC50 (curve of compound)
inactive: viability, T/C (compound 0.0316 µM) 108% [middle of 4 runs] | viability, T/C (compound 0.1 µM) 106% (3×) and 107% | viability, T/C (compound 0.316 µM) 102% [middle of 4 runs]
